From patent US20250250230A1, “HETEROCYCLIC COMPOUND” (TAKEDA PHARMACEUTICAL COMPANY LIMITED, priority 2022, published 2025)

Target: T1, human orexin type 2 receptor (Homo sapiens, UniProt O43614)
T1 construct: expressed in transfected cells
T1 sequence (O43614 1-444): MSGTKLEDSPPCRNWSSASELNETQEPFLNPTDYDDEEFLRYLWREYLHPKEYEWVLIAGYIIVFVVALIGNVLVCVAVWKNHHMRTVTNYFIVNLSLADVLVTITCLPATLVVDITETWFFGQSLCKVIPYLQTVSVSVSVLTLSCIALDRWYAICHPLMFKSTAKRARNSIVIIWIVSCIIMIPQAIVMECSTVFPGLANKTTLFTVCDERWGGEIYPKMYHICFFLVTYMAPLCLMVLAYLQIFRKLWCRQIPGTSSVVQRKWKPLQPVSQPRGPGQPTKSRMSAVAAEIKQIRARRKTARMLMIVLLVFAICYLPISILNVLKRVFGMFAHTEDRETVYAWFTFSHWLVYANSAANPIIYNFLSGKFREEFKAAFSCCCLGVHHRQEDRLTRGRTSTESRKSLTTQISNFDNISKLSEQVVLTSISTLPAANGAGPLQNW
Assay: Measurement of orexin type 2 receptor agonist activity (calcium fluorescence, Fluo-4 AM, FDSS)
Type: cell-based
Details: test compound 3 μM; CHO cells expressing human OX2 receptor; DMSO = 0%, orexin A (human) = 100%
Excerpt: To obtain a cell clone stably expressing human orexin type 2 receptor, human orexin type 2 receptor cDNA was inserted into pcDNA3.1(+) plasmid vector (Invitrogen), and a plasmid DNA for expression of human orexin type 2 receptor (pcDNA3.1(+)/hOX2R) was cloned. The plasmid DNA was introduced into CHO-K1 cell by an electroporation method, and human orexin type 2 receptor expressing clone cells were obtained by limiting dilution method by using G418 drug resistance as a selection marker.
CHO cells forcibly expressing human OX2 receptor were seeded in each well of 384 well black transparent bottom plate (BD Falcon) at 10,000 cells/well, and cultured for one day in a 5% CO2 incubator at 37° C. After removal of the medium in the cell plate, assay buffer A containing a calcium indicator (HBSS (Thermo Fisher Scientific), 20 mM HEPES (Thermo Fisher Scientific), 0.1% BSA (Sigma-Aldrich), 2.5 μg/mL Fluo-4 AM (DOJINDO Chemical), 0.08% Pluronic F127 (DOJINDO Chemical), 1.25 mM probenecid (DOJINDO Chemical)) was added at 30 μL/well. The plate was stood for 30 min in a 5% CO2 incubator at 37° C., and further stood at room temperature for 30 min. A test compound prepared by diluting with assay buffer B (HBSS, 20 mM HEPES, 0.1% BSA) was added at 10 μL/well, and the fluorescence value was measured by FDSSμCELL (Hamamatsu Photonics K.K.) every one sec for 1 min, and thereafter every two sec for […]. The activity (%) of the test compound was calculated assuming that variation in the fluorescence value when DMSO was added instead of the test compound was 0%, and variation in the fluorescence value when orexin A (human) (PEPTIDE INSTITUTE, INC.) was added at the final concentration of 10 nM was 100%.

SMILES | OX2R agonist activity (3 μM, %) [%]
CS(=O)(=O)NC[C@@H]1CCN1C(=O)C1(CO)CC1c1ccccc1-c1c(F)cccc1F (stereo partly drawn) [Example 365, N-({(2S)-1-[(1R,2S)-2-(2′,6′-difluoro[1,1′-biphenyl]-2-yl)-1-(hydroxymethyl)cyclopropane-1-carbonyl]azetidin-2-yl}methyl)methanesulfonamide, or N-({(2S)-1-[(1S,2R)-2-(2′,6′-difluoro[1,1′-biphenyl]-2-yl)-1-(hydroxymethyl)cyclopropane-1-carbonyl]azetidin-2-yl}methyl)methanesulfonamide] | 103
CS(=O)(=O)NC1CCCN(C(=O)C2CC2c2ccccc2-c2ccc(F)cc2F)C1 (racemic) [Example 68, a mixture of rac-N-{(3R)-1-[(1R,2R)-2-(2′,4′-difluoro[1,1′-biphenyl]-2-yl)cyclopropane-1-carbonyl]piperidin-3-yl}methanesulfonamide and rac-N-{(3S)-1-[(1R,2R)-2-(2′,4′-difluoro[1,1′-biphenyl]-2-yl)cyclopropane-1-carbonyl]piperidin-3-yl}methanesulfonamide] | 85
CN(C)S(=O)(=O)NC1CCCN(C(=O)C2CC2c2ccccc2-c2c(F)cccc2F)CC1 (racemic) [Example 114, a mixture of rac-N′-{(4R)-1-[(1R,2R)-2-(2′,6′-difluoro[1,1′-biphenyl]-2-yl)cyclopropane-1-carbonyl]azepan-4-yl}-N,N-dimethylsulfuric diamide and rac-N′-{(4S)-1-[(1R,2R)-2-(2′,6′-difluoro[1,1′-biphenyl]-2-yl)cyclopropane-1-carbonyl]azepan-4-yl}-N,N-dimethylsulfuric diamide] | 102
CS(=O)(=O)NC1CCCN(C(=O)C2CC2c2ccc(F)cc2-c2c(F)cccc2F)C1 (racemic) [Example 152, a mixture of rac-N-{(3R)-1-[(1R,2R)-2-(2′,5,6′-trifluoro[1,1′-biphenyl]-2-yl)cyclopropane-1-carbonyl]piperidin-3-yl}methanesulfonamide and rac-N-{(3S)-1-[(1R,2R)-2-(2′,5,6′-trifluoro[1,1′-biphenyl]-2-yl)cyclopropane-1-carbonyl]piperidin-3-yl}methanesulfonamide] | 95
CS(=O)(=O)NC1CCCN(C(=O)C2CC2c2c(F)cccc2-c2c(F)cccc2F)C1 (stereo not drawn) [Example 211, N-{1-[2-(2′-3,6′-trifluoro[1,1′-biphenyl]-2-yl)cyclopropane-1-carbonyl]piperidin-3-yl}methanesulfonamide optical isomer] | 105
C[C@H]1CN(C(=O)[C@@H]2C[C@@]2(F)c2ccccc2-c2c(F)cccc2F)C[C@@H](CNS(C)(=O)=O)O1 [Example 364, N-({(2S,6S)-4-[(1S,2S)-2-(2′,6′-difluoro[1,1′-biphenyl]-2-yl)-2-fluorocyclopropane-1-carbonyl]-6-methylmorpholin-2-yl}methyl)methanesulfonamide] | 88
O=C(C1CC1c1ccccc1-c1c(F)cccc1F)N1CCCCC(NS(=O)(=O)C2CC2)C1 (racemic) [Example 161, a mixture of rac-N-{(3R)-1-[(1R,2R)-2-(2′,6′-difluoro[1,1′-biphenyl]-2-yl)cyclopropane-1-carbonyl]azepan-3-yl}cyclopropanesulfonamide and rac-N-{(3S)-1-[(1R,2R)-2-(2′,6′-difluoro[1,1′-biphenyl]-2-yl)cyclopropane-1-carbonyl]azepan-3-yl}cyclopropanesulfonamide] | 99
CS(=O)(=O)NC(C1CC1)[C@@H]1CCN1C(=O)[C@@H]1C[C@@]1(F)c1ccccc1-c1c(F)cccc1F (stereo partly drawn) [Example 394, N-[(R)-cyclopropyl{(2S)-1-[(1S,2S)-2-(2′,6′-difluoro[1,1′-biphenyl]-2-yl)-2-fluorocyclopropane-1-carbonyl]azetidin-2-yl}methyl]methanesulfonamide, or N-[(S)-cyclopropyl{(2S)-1-[(1S,2S)-2-(2′,6′-difluoro[1,1′-biphenyl]-2-yl)-2-fluorocyclopropane-1-carbonyl]azetidin-2-yl}methyl]methanesulfonamide] | 106
CCS(=O)(=O)NCC1CCN1C(=O)C1CC1c1ccccc1-c1c(F)cccc1F (racemic) [Example 203, a mixture of rac-N-({(2R)-1-[(1R,2R)-2-(2′,6′-difluoro[1,1′-biphenyl]-2-yl)cyclopropane-1-carbonyl]azetidin-2-yl}methyl)ethanesulfonamide and rac-N-({(2S)-1-[(1R,2R)-2-(2′,6′-difluoro[1,1′-biphenyl]-2-yl)cyclopropane-1-carbonyl]azetidin-2-yl}methyl)ethanesulfonamide] | 94
CS(=O)(=O)NC1CCCN(C(=O)C2CC2c2ccc(F)cc2-c2c(F)cccc2F)CC1 (racemic) [Example 153, a mixture of rac-N-{(4R)-1-[(1R,2R)-2-(2′,5,6′-trifluoro[1,1′-biphenyl]-2-yl)cyclopropane-1-carbonyl]azepan-4-yl}methanesulfonamide and rac-N-{(4S)-1-[(1R,2R)-2-(2′,5,6′-trifluoro[1,1′-biphenyl]-2-yl)cyclopropane-1-carbonyl]azepan-4-yl}methanesulfonamide] | 100

Continued, values first:

OX2R agonist activity (3 μM, %) [%] | SMILES
81 | Cc1cccc(F)c1-c1ccccc1C1CC1C(=O)N1CCC(NS(C)(=O)=O)C1 (racemic) [Example 3, a mixture of rac-N-{(3R)-1-[(1R,2R)-2-(2′-fluoro-6′-methyl[1,1′-biphenyl]-2-yl)cyclopropane-1-carbonyl]pyrrolidin-3-yl}methanesulfonamide and rac-N-{(3S)-1-[(1R,2R)-2-(2′-fluoro-6′-methyl[1,1′-biphenyl]-2-yl)cyclopropane-1-carbonyl]pyrrolidin-3-yl}methanesulfonamide]
100 | CS(=O)(=O)N[C@@H]1CN(C(=O)[C@@H]2C[C@H]2c2ccccc2-c2c(F)cccc2F)CC[C@H]1O [Example 269, N-{(3R,4R)-1-[(1R,2R)-2-(2′,6′-difluoro[1,1′-biphenyl]-2-yl)cyclopropane-1-carbonyl]-4-hydroxypiperidin-3-yl}methanesulfonamide]
78 | CC1(C(=O)N2CCC[C@H](NS(C)(=O)=O)CC2)CC1c1ccccc1-c1c(F)cccc1F (stereo partly drawn) [Example 246, N-{(4S)-1-[(1R,2S)-2-(2′,6′-difluoro[1,1′-biphenyl]-2-yl)-1-methylcyclopropane-1-carbonyl]azepan-4-yl}methanesulfonamide, or N-{(4S)-1-[(1S,2R)-2-(2′,6′-difluoro[1,1′-biphenyl]-2-yl)-1-methylcyclopropane-1-carbonyl]azepan-4-yl}methanesulfonamide]
91 | C[C@H]1C[C@H](NS(C)(=O)=O)CN1C(=O)C1(C)CC1c1ccccc1-c1c(F)cccc1F (stereo partly drawn) [Example 315, N-{(3S,5S)-1-[(1R,2S)-2-(2′,6′-difluoro[1,1′-biphenyl]-2-yl)-1-methylcyclopropane-1-carbonyl]-5-methylpyrrolidin-3-yl}methanesulfonamide, or N-{(3S,5S)-1-[(1S,2R)-2-(2′,6′-difluoro[1,1′-biphenyl]-2-yl)-1-methylcyclopropane-1-carbonyl]-5-methylpyrrolidin-3-yl}methanesulfonamide]
96 | CS(=O)(=O)N[C@H]1CCN(C(=O)C2(F)CC2c2ccccc2-c2c(F)cccc2F)C1 (stereo partly drawn) [Example 324, N-{(3S)-1-[(1R,2R)-2-(2′,6′-difluoro[1,1′-biphenyl]-2-yl)-1-fluorocyclopropane-1-carbonyl]pyrrolidin-3-yl}methanesulfonamide, or N-{(3S)-1-[(1S,2S)-2-(2′,6′-difluoro[1,1′-biphenyl]-2-yl)-1-fluorocyclopropane-1-carbonyl]pyrrolidin-3-yl}methanesulfonamide]
63 | CS(=O)(=O)NC1CCCN(C(=O)C2CC2c2cccc(F)c2-c2ccccc2F)CC1 (racemic) [Example 106, a mixture of rac-N-{(4R)-1-[(1R,2R)-2-(2′,6-difluoro[1,1′-biphenyl]-2-yl)cyclopropane-1-carbonyl]azepan-4-yl}methanesulfonamide and rac-N-{(4S)-1-[(1R,2R)-2-(2′,6-difluoro[1,1′-biphenyl]-2-yl)cyclopropane-1-carbonyl]azepan-4-yl}methanesulfonamide]
